What was measured:
Test in all cases: relative viability (nuclei count vs DMSO), 5 days (fraction); higher = more cells survive
[1] = tested on: HCC-78
How it was run: (§1)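 Relative viability is defined as nuclei in treated wells over nuclei in vehicle wells. Duplicate plates were run and medians reported. Lung cancer cell lines in 1536-well plates were dosed by pin tool one day after seeding, with one drug or with a fixed anchor-drug dose plus five library-drug doses (not always all listed) in √10 steps, and nuclei were counted after 5 days.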

[2] = tested on: NCI-H1993
How it was run: as §1

[3] = tested on: NCI-H647
How it was run: as §1

[4] = tested on: NCI-H460
How it was run: as §1

[5] = tested on: NCI-H1563
How it was run: as §1

[6] = tested on: LK-2
How it was run: as §1

[7] = tested on: COR-L23
How it was run: as §1

[8] = tested on: NCI-H2405
How it was run: as §1

[9] = tested on: HCC-366
How it was run: as §1

[10] = tested on: HCC-15
How it was run: as §1

[11] = tested on: NCI-H1734
How it was run: as §1

## CCNC(=O)c1noc(-c2cc(C(C)C)c(O)cc2O)c1-c1ccc(CN2CCOCC2)cc1 [Luminespib] + COc1cc2c(Oc3ccc(NC(=O)C4(C(=O)Nc5ccc(F)cc5)CC4)cc3F)ccnc2cc1OCCCN1CCOCC1 [Foretinib] (partner 0.25 µM)
[1]; first compound 0.002 µM
  relative viability: 0.627
[1]; first compound 0.006325 µM
  relative viability: 0.593
[1]; first compound 0.06325 µM
  relative viability: 0.609
[1]; first compound 0.2 µM
  relative viability: 0.598
[2]; first compound 0.002 µM
  relative viability: 0.772
[2]; first compound 0.006325 µM
  relative viability: 0.779
[2]; first compound 0.02 µM
  relative viability: 0.632
[2]; first compound 0.06325 µM
  relative viability: 0.549
[2]; first compound 0.2 µM
  relative viability: 0.482
[3]; first compound 0.002 µM
  relative viability: 1.32
[3]; first compound 0.006325 µM
  relative viability: 1.12
[3]; first compound 0.02 µM
  relative viability: 1.32
[3]; first compound 0.06325 µM
  relative viability: 0.131
[3]; first compound 0.2 µM
  relative viability: 0.0972
[4]; first compound 0.002 µM
  relative viability: 1.01
[4]; first compound 0.006325 µM
  relative viability: 1.07
[4]; first compound 0.02 µM
  relative viability: 0.957
[4]; first compound 0.06325 µM
  relative viability: 0.0285
[4]; first compound 0.2 µM
  relative viability: 0.0276
[5]; first compound 0.002 µM
  relative viability: 1.01
[5]; first compound 0.006325 µM
  relative viability: 0.831
[5]; first compound 0.02 µM
  relative viability: 0.875
[5]; first compound 0.06325 µM
  relative viability: 0.452
[5]; first compound 0.2 µM
  relative viability: 0.537
[6]; first compound 0.002 µM
  relative viability: 1.66
[6]; first compound 0.006325 µM
  relative viability: 1.44
[6]; first compound 0.02 µM
  relative viability: 0.604
[6]; first compound 0.06325 µM
  relative viability: 0.858
[6]; first compound 0.2 µM
  relative viability: 0.88
[7]; first compound 0.002 µM
  relative viability: 1.06
[7]; first compound 0.006325 µM
  relative viability: 0.894
[7]; first compound 0.02 µM
  relative viability: 1.12
[7]; first compound 0.06325 µM
  relative viability: 0.124
[7]; first compound 0.2 µM
  relative viability: 0.105
[8]; first compound 0.002 µM
  relative viability: 1.08
[8]; first compound 0.006325 µM
  relative viability: 0.852
[8]; first compound 0.02 µM
  relative viability: 1
[8]; first compound 0.06325 µM
  relative viability: 0.227
[8]; first compound 0.2 µM
  relative viability: 0.2
[9]; first compound 0.002 µM
  relative viability: 0.925
[9]; first compound 0.006325 µM
  relative viability: 0.921
[9]; first compound 0.02 µM
  relative viability: 0.921
[9]; first compound 0.06325 µM
  relative viability: 0.887
[9]; first compound 0.2 µM
  relative viability: 0.199
[10]; first compound 0.002 µM
  relative viability: 1.09
[10]; first compound 0.006325 µM
  relative viability: 0.971
[10]; first compound 0.02 µM
  relative viability: 1.07
[10]; first compound 0.06325 µM
  relative viability: 0.151
[10]; first compound 0.2 µM
  relative viability: 0.126
[11]; first compound 0.002 µM
  relative viability: 0.9
[11]; first compound 0.006325 µM
  relative viability: 0.915
[11]; first compound 0.02 µM
  relative viability: 0.697
[11]; first compound 0.06325 µM
  relative viability: 0.175
[11]; first compound 0.2 µM
  relative viability: 0.171
